The target of this assay is human P2X7 receptor (Homo sapiens (Human), UniProt Q99572, R270H). The assay is described as follows: Evaluation of a human P2X7 receptor inhibitory activity (Yo-Pro uptake, BzATP stimulation, FLIPR TETRA). The settings on record: 1321N1 cells stably expressing human P2X7 receptor, Yo-Pro fluorescence. It counts as cell-based. Here is the method:
Evaluation of a human P2X7 receptor inhibitory activity Stably expressing cell line (1321N1 cell transfected with the human P2X7 receptor gene (GenBank accession number NM_002562.5 including T606C and G952A SNP)) was used. The cells were seeded in a 384-well microtiter plate at a concentration of 8000 cells/well and cultured in the medium (10% fetal bovine serum, 25 mM HEPES, 1% penicillin and streptomycin in DMEM) for one day at 37° C. under 5% carbon dioxide atmosphere. After replacing with 20 μL of the HBSS buffer (20 mM HEPES, 55.6 mM D-glucose, 1× HBSS(−), pH7.4-7.5), 15 μL of 17.3 μM Yo-Pro solution in the HBSS buffer was added. The plate was placed in high-throughput cellular screening system FLIPR TETRA (Molecullar Devices, LLC.) and 15 μL of 130 μM BzATP solution in the HBSS buffer was added. Measurement of fluorescence intensity by FLIPR TETRA was started. After eight minutes, 15 μL of DMSO solutions containing different concentrations of the compound of the present invention as prepared by dilution with the HBSS buffer were dispensed to each well through the built-in automatic dispenser, and the measurement of fluorescence intensity was continued for 20 minutes. The maximum fluorescence intensity without the compound of the present invention is calculated as 0% inhibition and the maximum fluorescence intensity when the reference compound was added is calculated as 100% inhibition. Changing values of fluorescence intensity by the compound of the present invention were calculated by difference between maximum and minimum fluorescence intensity for 20 minutes. Inhibition ratios (%) were calculated from the following equation:
[formula] IC50 was calculated using logistic approximation.
As for IC50 value, value to below 10 nmol/L is represented as “A”, value from 10 nmol/L to below 100 nmol/L is represented as “B”, value from 100 nmol/L to below 500 nmol/L is represented as “C”, and value from 500 nmol/L to below 1 μmol/L is represented as “D”.

SMILES strings stand for the structures.

Sequence of human P2X7 receptor (Q99572 whole entry R270H): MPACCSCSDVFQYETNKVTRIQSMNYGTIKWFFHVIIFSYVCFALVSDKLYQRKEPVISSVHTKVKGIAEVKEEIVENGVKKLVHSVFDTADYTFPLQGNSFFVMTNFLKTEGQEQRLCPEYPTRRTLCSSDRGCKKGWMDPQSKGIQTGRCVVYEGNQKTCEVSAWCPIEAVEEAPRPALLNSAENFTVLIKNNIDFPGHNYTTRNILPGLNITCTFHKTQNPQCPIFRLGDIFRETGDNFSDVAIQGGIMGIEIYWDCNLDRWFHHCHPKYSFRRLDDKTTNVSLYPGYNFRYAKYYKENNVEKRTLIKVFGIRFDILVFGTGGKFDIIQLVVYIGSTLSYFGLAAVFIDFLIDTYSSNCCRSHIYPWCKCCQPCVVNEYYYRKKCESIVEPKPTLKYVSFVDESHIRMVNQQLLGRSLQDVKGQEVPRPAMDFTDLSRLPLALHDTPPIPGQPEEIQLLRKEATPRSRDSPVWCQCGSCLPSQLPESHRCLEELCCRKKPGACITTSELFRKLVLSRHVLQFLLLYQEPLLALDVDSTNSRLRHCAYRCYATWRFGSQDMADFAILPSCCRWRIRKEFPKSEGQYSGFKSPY

The term IC50 denotes the concentration needed to halve the response being measured. Read a low IC50 as greater potency in that assay. For the setting “class symbols”, `COc1ccc(NC2=NC(=O)N(C)C3=NCC(c4ccc(F)cc4)N23)c(C)c1` (centres unmarked) [Compound I-0130] registered an IC50 of 10 to 100 nM.

With `COc1ccc(C)c(NC2=NC(=O)N(C)C3=NCC(c4cc(F)cc(F)c4)N23)c1` (centres unmarked) [Compound I-0131], where the note is “class symbols”, the IC50 lay in the range of 10 to 100 nM. On the same count and under the same terms, then `COc1cc(C)c(NC2=NC(=O)N(C)C3=NCC(c4cc(F)cc(F)c4)N23)cc1OC` (centres unmarked) [Compound I-0132], with 10 to 100 nM. Still for that read-out and setting: the value for `COc1cc(NC2=NC(=O)N(C)C3=NCC(c4cc(F)cc(F)c4)N23)c(C)nc1OC` (centres unmarked) [Compound I-0133] was 10 to 100 nM. Same read-out and setting: the value for `COc1cc(Nc2nc(=O)cc3n2C(c2cc(F)cc(F)c2)CN3)c(C)cc1F` (centres unmarked) [Compound I-0134] was under 10 nM; that for `COc1nc(C)c(Nc2nc(=O)c(F)c3n2C(c2cc(F)cc(F)c2)CC3)cc1C` (centres unmarked) [Compound I-0136] was 10 to 100 nM; that for `COc1ccc(NC2=NC(=O)N(C)C3=NCC(c4cc(F)cc(F)c4)N23)c(C)c1F` (centres unmarked) [Compound I-0137] was 10 to 100 nM. `CCN1C(=O)N=C(Nc2cc(OC)c(OC)cc2C)N2C1=NCC2c1ccc(F)cc1` (centres unmarked) [Compound I-0138] had an IC50 (class symbols) of 10 to 100 nM.

As for `CCN1C(=O)N=C(Nc2cc(OC)ccc2C)N2C1=NCC2c1ccc(F)cc1` (centres unmarked) [Compound I-0139], the IC50 (class symbols) was in the range of 10 to 100 nM. Under “class symbols”, `CCN1C(=O)N=C(Nc2ccc(OC)cc2C)N2C1=NCC2c1ccc(F)cc1` (centres unmarked) [Compound I-0140] registered an IC50 of 10 to 100 nM.

In the case of `COc1nc(C)c(Nc2nc(=O)c(F)c3n2C(c2cc(F)cc(F)c2)CC3)cc1F` (centres unmarked) [Compound I-0141], the IC50 (class symbols) is 10 to 100 nM. Where the note is “class symbols”, `COc1ccc(NC2=NC(=O)N(C)C3=NCC(c4cc(F)c(F)c(F)c4)N23)c(C)n1` (centres unmarked) [Compound I-0143] showed an IC50 of 10 to 100 nM. The same measure, in the same setting: the value for `COc1ccc(NC2=NC(=O)N(C)C3=NCC(c4cc(F)cc(F)c4)N23)c(C)n1` (centres unmarked) [Compound I-0144] was 10 to 100 nM. Where the note is “class symbols”, `Cc1ccc(C#N)cc1NC1=NC(=O)N(C)C2=NCC(c3cc(F)cc(F)c3)N12` (centres unmarked) [Compound I-0146] came in with an IC50 of 10 to 100 nM. On to `COc1cc(NC2=NC(=O)N(C)C3=NCC(c4cc(F)cc(F)c4)N23)c(C)cc1F` (centres unmarked) [Compound I-0148], for which the IC50 (class symbols) lay within 10 to 100 nM. Consider `COc1cc(NC2=NC(=O)N(C)C3=NCC(c4ccc(F)cc4)N23)c(C)cc1F` (centres unmarked) [Compound I-0150], for which 18 nM corresponded to half-maximal inhibition (IC50). This counts as double-digit nanomolar. On to `COc1ccc(NC2=NC(=O)N(C)C3=NCC(c4ccc(F)cc4)N23)c(C)c1F` (centres unmarked) [Compound I-0151], for which the IC50 was 14 nM.

For `COc1cc(C)c(Nc2nc(=O)c(F)c3n2C(c2ccc(F)cc2)CN3C)cc1OC` (centres unmarked) [Compound I-0152], the IC50 (class symbols) is 10 to 100 nM. Compound `COc1cc(C)c(Nc2nc(=O)nc3n2C(c2cc(F)c(F)c(F)c2)CN3)cc1OC` (centres unmarked) [Compound I-0153] registered a concentration for half-maximal inhibition (IC50) (class symbols) of 10 to 100 nM.

Turning to `CCc1nc(OC)ccc1NC1=NC(=O)N(C)C2=NCC(c3cc(F)cc(F)c3)N12` (centres unmarked) [Compound I-0155], the concentration for half-maximal inhibition (IC50) (class symbols) was in the range of 10 to 100 nM. Same read-out and setting: then `Cc1nc2cc(C)c(NC3=NC(=O)N(C)C4=NCC(c5cc(F)c(F)c(F)c5)N34)cc2s1` (centres unmarked) [Compound I-0156], with 10 to 100 nM; and `CCOc1cc(NC2=NC(=O)N(C)C3=NCC(c4cc(F)c(F)c(F)c4)N23)c(C)cc1F` (centres unmarked) [Compound I-0157], with 10 to 100 nM; and `COc1nc(C)c(NC2=NC(=O)N(C)C3=NCC(c4cc(F)c(F)c(F)c4)N23)cc1C` (centres unmarked) [Compound I-0159], with 10 to 100 nM. On the same count and under the same terms, the value for `COc1ccc(Nc2nc(=O)c(F)c3n2C(c2ccc(F)cc2)CN3C)c(C)n1` (centres unmarked) [Compound I-0160] was 10 to 100 nM; that for `COc1ccc(Nc2nc(=O)c(F)c3n2C(c2cc(F)c(F)c(F)c2)CN3)c(C)n1` (centres unmarked) [Compound I-0163] was 10 to 100 nM. On the same count and under the same terms, the value for `CCOc1ccc(NC2=NC(=O)N(C)C3=NCC(c4cc(F)c(F)c(F)c4)N23)c(CC)n1` (centres unmarked) [Compound I-0165] was 10 to 100 nM. The compound `COc1ccc(C)c(Nc2nc(=O)c(F)c3n2C(c2cc(F)c(F)c(F)c2)CN3)c1` (centres unmarked) [Compound I-0166] gave a concentration for half-maximal inhibition (IC50) (class symbols) of 10 to 100 nM. Same read-out and setting: then `COc1cc(NC2=NC(=O)N(C)C3=NCC(c4cc(F)c(F)c(F)c4)N23)c(C)nc1OC` (centres unmarked) [Compound I-0167], with 100 to 500 nM.

As for `COCCOc1ccc(C)c(NC2=NC(=O)N(C)C3=NCC(Cc4ccccc4)N23)c1` (centres unmarked) [Compound I-0169], the half-maximal inhibitory concentration (IC50) (class symbols) is 10 to 100 nM.

`COc1cc(C)c(Nc2nc(=O)n(C)c3ncn(Cc4ccccc4)c23)cc1OC` [Compound I-0170]: the IC50 (class symbols) lay within 10 to 100 nM. The same measure, in the same setting: the value for `Cc1cc(F)c(OCCO)cc1NC1=NC(=O)N(C)C2=NCC(c3cc(F)c(F)c(F)c3)N12` (centres unmarked) [Compound I-0172] was 10 to 100 nM; that for `COc1ccc(C)c(Nc2nc(=O)n(C)c3ncn(Cc4ccccc4)c23)c1` [Compound I-0173] was 500 to 1000 nM.

For `COc1ccc(Nc2nc(=O)n(C)c3ncn(Cc4ccccc4)c23)c(C)c1` [Compound I-0174], the IC50 (class symbols) lay within 100 to 500 nM. On the same count and under the same terms, then `Cc1ncc(CO)cc1NC1=NC(=O)N(C)C2=NCC(c3cc(F)c(F)c(F)c3)N12` (centres unmarked) [Compound I-0175], with 10 to 100 nM; and `Cc1ccc(C)c(NC2=NC(=O)N(C)C3=NCC(Cc4ccccc4)N23)c1` (centres unmarked) [Compound I-0177], with 100 to 500 nM. The same measure, in the same setting: the value for `Cc1ccc(CO)cc1NC1=NC(=O)NC2=NCC(c3cc(F)c(F)c(F)c3)N21` (centres unmarked) [Compound I-0178] was 10 to 100 nM; that for `Cc1ccc(CO)cc1NC1=NC(=O)N(C)C2=NCC(Cc3ccccc3)N12` (centres unmarked) [Compound I-0179] was 100 to 500 nM.

For `CCc1ccc(CO)cc1NC1=NC(=O)NC2=NCC(c3cc(F)c(F)c(F)c3)N21` (centres unmarked) [Compound I-0180], where the note is “class symbols”, the IC50 lay within 10 to 100 nM. `Cc1ccc(CCCO)cc1NC1=NC(=O)N(C)C2=NCC(c3cc(F)c(F)c(F)c3)N12` (centres unmarked) [Compound I-0181] yielded an IC50 (class symbols) of 10 to 100 nM. Same read-out and setting: the value for `COc1nc(C)c(NC2=NC(=O)N(C)C3=NCC(c4cc(F)c(F)c(F)c4)N23)cc1CO` (centres unmarked) [Compound I-0182] was 10 to 100 nM; that for `CCc1ccc(CO)cc1NC1=NC(=O)N(C)C2=NCC(Cc3ccccc3)N12` (centres unmarked) [Compound I-0183] was 100 to 500 nM; that for `Cc1ccc(CC(F)(F)CO)cc1NC1=NC(=O)N(C)C2=NCC(c3cc(F)c(F)c(F)c3)N12` (centres unmarked) [Compound I-0184] was 10 to 100 nM. On the same count and under the same terms, the value for `Cc1ccc(O[C@H]2C[C@@H](CO)C2)cc1NC1=NC(=O)N(C)C2=NCC(c3cc(F)c(F)c(F)c3)N12` (some centres unmarked) [Compound I-0185] was 10 to 100 nM; that for `Cc1ccc(O[C@H]2C[C@H](CO)C2)cc1NC1=NC(=O)N(C)C2=NCC(c3cc(F)c(F)c(F)c3)N12` (some centres unmarked) [Compound I-0186] was 10 to 100 nM; that for `Cc1cc2cnn(CCO)c2cc1NC1=NC(=O)N(C)C2=NCC(c3cc(F)c(F)c(F)c3)N12` (centres unmarked) [Compound I-0187] was 10 to 100 nM. On the same count and under the same terms, the value for `Cc1ccc(C#N)cc1NC1=NC(=O)N(CCO)C2=NCC(c3cc(F)c(F)c(F)c3)N12` (centres unmarked) [Compound I-0189] was 10 to 100 nM; that for `Cc1ccc(OC[C@H]2C[C@H](O)C2)cc1NC1=NC(=O)N(C)C2=NCC(c3cc(F)c(F)c(F)c3)N12` (some centres unmarked) [Compound I-0190] was 10 to 100 nM; that for `Cc1ccc(C=O)cc1NC1=NC(=O)N(C)C2=NCC(c3cc(F)c(F)c(F)c3)N12` (centres unmarked) [Compound I-0191] was 10 to 100 nM. `Cc1ccc(Oc2ccccn2)cc1NC1=NC(=O)N(C)C2=NCC(c3cc(F)c(F)c(F)c3)N12` (centres unmarked) [Compound I-0193] showed an IC50 (class symbols) of 10 to 100 nM. On the same count and under the same terms, the value for `Cc1ccc(CCO)cc1NC1=NC(=O)N(C)C2=NCC(c3cc(F)c(F)c(F)c3)N12` (centres unmarked) [Compound I-0194] was 10 to 100 nM.

In turn, `Cc1ccc(CO)cc1NC1=NC(=O)N(C)C2=NCC(c3cc(F)nc(F)c3)N12` (centres unmarked) [Compound I-0195] came in with an IC50 (class symbols) of 10 to 100 nM. Still for that read-out and setting: then `CN1C(=O)N=C(NCc2ccccc2F)N2C1=NCC2c1cc(F)c(F)c(F)c1` (centres unmarked) [Compound I-0196], with 10 to 100 nM; and `CN1C(=O)N=C(NCc2cccc(F)c2)N2C1=NCC2c1cc(F)c(F)c(F)c1` (centres unmarked) [Compound I-0197], with 10 to 100 nM; and `CN1C(=O)N=C(NCc2ccc(F)cc2)N2C1=NCC2c1cc(F)c(F)c(F)c1` (centres unmarked) [Compound I-0198], with 10 to 100 nM. For `Cc1ccc(OCCS(C)(=O)=O)cc1NC1=NC(=O)N(C)C2=NCC(c3cc(F)c(F)c(F)c3)N12` (centres unmarked) [Compound I-0199], for the setting “class symbols”, the IC50 was 10 to 100 nM. Compound `Cc1ccc(OCC#N)cc1NC1=NC(=O)N(C)C2=NCC(c3cc(F)c(F)c(F)c3)N12` (centres unmarked) [Compound I-0200] registered an IC50 (class symbols) of 10 to 100 nM. The same measure, in the same setting: then `COCCc1ccc(C)c(NC2=NC(=O)N(C)C3=NCC(c4cc(F)c(F)c(F)c4)N23)c1` (centres unmarked) [Compound I-0202], with 10 to 100 nM; and `COCC(F)(F)Oc1ccc(C)c(NC2=NC(=O)N(C)C3=NCC(c4cc(F)c(F)c(F)c4)N23)c1` (centres unmarked) [Compound I-0203], with 10 to 100 nM. On the same count and under the same terms, then `Cc1ccc(OC(F)(F)CO)cc1NC1=NC(=O)N(C)C2=NCC(c3cc(F)c(F)c(F)c3)N12` (centres unmarked) [Compound I-0204], with 10 to 100 nM.

Values taken from patent US11066409B2, “Bicyclic nitrogen-containing heterocyclic derivatives and pharmaceutical composition comprising the same” (Shionogi & Co., Ltd., priority 2016, dated 2021).
